Measured values from PMC7163368 (British Journal of Clinical Pharmacology, 2020).
“And” between values parts separate entries of the source, which are not always exact repeats. Equal entries are not always repeated. “Also recorded” adds a separate entry of the source.

What was measured:
DPP‐IV = DPP‐IV (Homo sapiens, UniProt P27487); assay: Plasma DPP-IV activity; type: in vivo; conditions: for Post‐dose DPP‐IV activity over 24 hours: day 0, mean
[1] = Safety and tolerability: adverse events, laboratory, ECG, physical examination; type: in vivo, human
[2] = 30 mg i.v. (n = 5), day 0, mean (SD)
[3] = 30 mg s.c. (n = 5), day 0, mean (SD)
[4] = 60 mg s.c. (n = 10), day 0, mean (SD)
[5] = 90 mg s.c. (n = 10), day 0, mean (SD)

Chain of DPP‐IV (P27487 39-766): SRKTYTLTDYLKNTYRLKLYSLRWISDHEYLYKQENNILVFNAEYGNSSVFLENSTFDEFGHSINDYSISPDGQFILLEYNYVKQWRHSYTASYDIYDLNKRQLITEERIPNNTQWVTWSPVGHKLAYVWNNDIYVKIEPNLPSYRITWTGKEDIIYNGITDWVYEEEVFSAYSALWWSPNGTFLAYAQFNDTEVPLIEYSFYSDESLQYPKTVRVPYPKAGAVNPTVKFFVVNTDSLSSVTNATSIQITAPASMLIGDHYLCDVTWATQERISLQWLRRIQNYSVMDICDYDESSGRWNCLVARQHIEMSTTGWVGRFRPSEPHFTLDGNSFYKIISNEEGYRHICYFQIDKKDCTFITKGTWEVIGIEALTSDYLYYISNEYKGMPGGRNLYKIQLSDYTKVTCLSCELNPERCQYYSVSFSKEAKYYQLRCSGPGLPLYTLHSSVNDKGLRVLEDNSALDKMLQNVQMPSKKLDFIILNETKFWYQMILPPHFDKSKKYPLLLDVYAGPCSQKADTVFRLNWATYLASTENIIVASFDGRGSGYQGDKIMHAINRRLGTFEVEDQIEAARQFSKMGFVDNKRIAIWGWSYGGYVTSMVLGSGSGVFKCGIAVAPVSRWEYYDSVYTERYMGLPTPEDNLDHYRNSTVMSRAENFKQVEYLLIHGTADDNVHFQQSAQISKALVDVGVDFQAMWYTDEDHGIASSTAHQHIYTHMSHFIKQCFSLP

- Post‐dose DPP‐IV activity over 24 hours (DPP‐IV; 30 mg i.v. (n = 5)): 37.83%
- AUEC0‐24h (DPP‐IV; [2]): 908 (149) %*h
- Lowest DPP‐IV activity (DPP‐IV; [2]): 7.63 (0.95) %
- Time to maximum DPP‐IV inhibition (DPP‐IV; 30 mg intravenous): 0.5 h
- Post‐dose DPP‐IV activity over 24 hours (DPP‐IV; 30 mg s.c. (n = 5)): 35.36%
- AUEC0‐24h (DPP‐IV; [3]): 849 (74) %*h
- Lowest DPP‐IV activity (DPP‐IV; [3]): 8.03 (1.76) %
- Time to lowest DPP‐IV activity (DPP‐IV; 30 mg subcutaneous): ≤ 2 h
- Post‐dose DPP‐IV activity over 24 hours (DPP‐IV; 60 mg s.c. (n = 10)): 22.42%
- AUEC0‐24h (DPP‐IV; [4]): 538 (44) %*h
- Lowest DPP‐IV activity (DPP‐IV; [4]): 7.67 (1.18) %
- Time to lowest DPP‐IV activity (DPP‐IV; 60 mg subcutaneous): ≤ 2 h
- Post‐dose DPP‐IV activity over 24 hours (DPP‐IV; 90 mg s.c. (n = 10)): 20.46%
- AUEC0‐24h (DPP‐IV; [5]): 491 (86) %*h
- Lowest DPP‐IV activity (DPP‐IV; [5]): 7.58 (1.17) %
- Time to lowest DPP‐IV activity (DPP‐IV; 90 mg subcutaneous): ≤ 4 h
- Post‐dose DPP‐IV activity over 24 hours (DPP‐IV; 120 mg s.c. (n = 10)): 17.96%
- AUEC0‐24h (DPP‐IV; 120 mg s.c. (n = 10), day 0, mean (SD)): 431 (93) %*h
- DPP‐IV inhibition over 24 hours (DPP‐IV; 120 mg s.c. multiple doses, day 6): 86% and > 86%
- Maximum AUEC0‐24h (DPP‐IV; 120 mg s.c. multiple dosing cohort, day 6, SD: 73): 342 h %
- Time to lowest DPP‐IV activity (DPP‐IV; 120 mg subcutaneous): ≤ 4 h
- DPP‐IV activity reduced to (DPP‐IV; all participants receiving 60 mg or more subcutaneously): < 10%
- Maximum DPP‐IV inhibition (DPP‐IV; all subjects receiving ≥60 mg): > 90%
- Lowest DPP‐IV activity (DPP‐IV; day 0, subcutaneous administration overall, SD: 1.60): 7.19%
SMILES: O=C(CN[C@@H]1CCNC1)N1CCC[C@H]1B(O)O [dutogliptin]
- AEs with intravenous bolus injection ([1]; 30 mg i.v.): not associated with any AEs
- Dose dependence of related systemic AEs ([1]; P > .999): No dose‐dependent increase
- Dose dependence of subjects experiencing at least 1 local AE ([1]; P > .999): no dose‐dependent increase
- Erythema, related: subjects with at least 1 AE ([1]; Total (n = 40)): 34 (85%)
- Fatigue, related: subjects with at least 1 AE ([1]; Total (n = 40)): 2 (5%)
- Headache, related: subjects with at least 1 AE ([1]; Total (n = 40)): 2 (5%)
- Hematoma, related: subjects with at least 1 AE ([1]; Total (n = 40)): 4 (10%)
- Local AEs, related: subjects with at least 1 AE ([1]; Total (n = 40)): 34 (85%)
- Other local AEs, related: subjects with at least 1 AE ([1]; Total (n = 40)): 1 (3%)
- Other systemic AEs, related: subjects with at least 1 AE ([1]; Total (n = 40)): 2 (5%)
- Pain with touching, related: subjects with at least 1 AE ([1]; Total (n = 40)): 8 (20%)
- Pain without touching, related: subjects with at least 1 AE ([1]; Total (n = 40)): 3 (8%)
- Swelling, related: subjects with at least 1 AE ([1]; Total (n = 40)): 2 (5%)
- Systemic AEs, related: subjects with at least 1 AE ([1]; Total (n = 40)): 6 (15%)
- Nonrelated serious AE (head injury, hospitalization) ([1]; all cohorts): 1
- Nonrelated severe AEs ([1]; all cohorts): Two nonrelated severe AEs
- Related systemic AEs, total ([1]; all cohorts): 6
- Related serious (or severe) adverse events ([1]; all cohorts, 40 healthy males): No related serious adverse events occurred; also recorded: No study drug‐related severe or serious AEs were observed
- All AEs, related: subjects with at least 1 AE ([1]; i.v. single dose 30 mg (n = 5)): 0
- Erythema, related: subjects with at least 1 AE ([1]; i.v. single dose 30 mg (n = 5)): 0
- Fatigue, related: subjects with at least 1 AE ([1]; i.v. single dose 30 mg (n = 5)): 0
- Headache, related: subjects with at least 1 AE ([1]; i.v. single dose 30 mg (n = 5)): 0
- Hematoma, related: subjects with at least 1 AE ([1]; i.v. single dose 30 mg (n = 5)): 0
- Induration, related: subjects with at least 1 AE ([1]; i.v. single dose 30 mg (n = 5)): 0
- Local AEs, related: subjects with at least 1 AE ([1]; i.v. single dose 30 mg (n = 5)): 0
- Other local AEs (burning sensation at the injection site), related: subjects with at least 1 AE ([1]; i.v. single dose 30 mg (n = 5)): 0
- Other systemic AEs (dizziness and nausea), related: subjects with at least 1 AE ([1]; i.v. single dose 30 mg (n = 5)): 0
- Pain with touching, related: subjects with at least 1 AE ([1]; i.v. single dose 30 mg (n = 5)): 0
- Pain without touching, related: subjects with at least 1 AE ([1]; i.v. single dose 30 mg (n = 5)): 0
- Swelling, related: subjects with at least 1 AE ([1]; i.v. single dose 30 mg (n = 5)): 0
- Systemic AEs, related: subjects with at least 1 AE ([1]; i.v. single dose 30 mg (n = 5)): 0
- All AEs, related: subjects with at least 1 AE ([1]; s.c. multidose 60 mg (n = 5)): 5 (100%)
- Erythema, related: subjects with at least 1 AE ([1]; s.c. multidose 60 mg (n = 5)): 5 (100%)
- Fatigue, related: subjects with at least 1 AE ([1]; s.c. multidose 60 mg (n = 5)): 1 (20%)
- Headache, related: subjects with at least 1 AE ([1]; s.c. multidose 60 mg (n = 5)): 0
- Hematoma, related: subjects with at least 1 AE ([1]; s.c. multidose 60 mg (n = 5)): 1 (20%)
- Induration, related: subjects with at least 1 AE ([1]; s.c. multidose 60 mg (n = 5)): 4 (80%)
- Local AEs, related: subjects with at least 1 AE ([1]; s.c. multidose 60 mg (n = 5)): 5 (100%)
- Other local AEs, related: subjects with at least 1 AE ([1]; s.c. multidose 60 mg (n = 5)): 0
- Other systemic AEs, related: subjects with at least 1 AE ([1]; s.c. multidose 60 mg (n = 5)): 0
- Pain with touching, related: subjects with at least 1 AE ([1]; s.c. multidose 60 mg (n = 5)): 3 (60%)
- Pain without touching, related: subjects with at least 1 AE ([1]; s.c. multidose 60 mg (n = 5)): 0
- Swelling, related: subjects with at least 1 AE ([1]; s.c. multidose 60 mg (n = 5)): 0
- Systemic AEs, related: subjects with at least 1 AE ([1]; s.c. multidose 60 mg (n = 5)): 1 (20%)
- All AEs, related: subjects with at least 1 AE ([1]; s.c. multidose 90 mg (n = 5)): 5 (100%)
- Erythema, related: subjects with at least 1 AE ([1]; s.c. multidose 90 mg (n = 5)): 5 (100%)
- Fatigue, related: subjects with at least 1 AE ([1]; s.c. multidose 90 mg (n = 5)): 1 (20%)
- Headache, related: subjects with at least 1 AE ([1]; s.c. multidose 90 mg (n = 5)): 1 (20%)
- Hematoma, related: subjects with at least 1 AE ([1]; s.c. multidose 90 mg (n = 5)): 1 (20%)
